Source: patent publication US6358984B1, “2,4-dioxopyrrolidine and 2,4-dioxotetrahydrofuran derivatives and medicines containing the same as the active ingredient” (Lead Chemical Co., Ltd., priority 1996, dated 2002)
Like-named read-outs stand apart in the source and are kept apart here.

Columns and labels:
angiotensin II receptor = target: T1, angiotensin II receptor (Oryctolagus cuniculus, UniProt P34976); experiment: Binding inhibition of 3H labeled angiotensin II to angiotensin II receptor membrane fraction; set-up: species or system rabbit; conditions: for IC50: rabbit adrenal gland membrane, 3H labeled angiotensin II 10^-9M, read-out: Receptor binding inhibition effect IC50
T1 construct: fraction of angiotensin II receptor membrane ([…]) prepared from rabbit adrenal gland; from tissue; host or cells: rabbit adrenal gland membrane fraction
T1 sequence (P34976 1-359): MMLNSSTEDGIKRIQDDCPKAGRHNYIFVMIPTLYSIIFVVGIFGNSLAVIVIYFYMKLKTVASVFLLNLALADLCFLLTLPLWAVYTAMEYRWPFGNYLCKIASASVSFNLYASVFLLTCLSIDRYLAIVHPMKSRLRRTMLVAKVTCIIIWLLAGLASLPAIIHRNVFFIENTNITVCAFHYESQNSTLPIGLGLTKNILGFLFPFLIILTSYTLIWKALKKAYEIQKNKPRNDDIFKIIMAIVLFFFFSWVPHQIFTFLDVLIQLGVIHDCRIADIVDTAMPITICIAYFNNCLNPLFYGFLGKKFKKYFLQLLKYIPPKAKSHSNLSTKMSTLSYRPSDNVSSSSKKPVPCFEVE
Experimental: The method of Cox et. al (Biochemical Pharmacology 33, 4057-4064 (1984) was modified to conduct angiotensin II receptor binding inhibition experiments. The present compounds (10^−5M to 10^−9M) and ^3H labeled angiotensin II (10^−9M) were added to a fraction of angiotensin II receptor membrane ([…]) prepared from rabbit adrenal gland and were allowed to react in a 20 mM Tris HCl buffer (pH: 7.0) containing 120 mM NaCl, 5 mM EDTA, 0.1 mM PMSF, and 0.2% BSA at 30° C. for 20 minutes so that the final volume was 540 μl. Then, the reaction mixture was quickly passed through a filter (whatman GF/B), and the filter was then rinsed three times in 4 ml of the buffer cooled in ice. Then, the radioactivity of receptor binding ^3H labeled angiotensin II captured on the filter was measured using a liquid scintillation counter. The angiotensin II receptor binding inhibition activity of the present compounds was evaluated based on the concentration (IC 50) required to replace 50% of the total amount of specifically binding ^3H labeled angiotensin II.

aortae of guinea pigs = experiment: Inhibition of vascular contraction caused by angiotensin II using pieces of the aortae of guinea pigs; assay type: cell-based; conditions: Cavia porcellus; guinea pig chest aorta, contraction induced by angiotensin II; read-out: Vascular contraction inhibition effect IC50
Experimental: Male Hartly guinea pigs (350 to 400 g) were contused on the head and sacrificed by allowing their blood to discharge from the arteria carotis communis. Immediately after death, the chest aorta was removed. A spiral sample of width 2 to 3 mm and length 20 to 25 mm was cut from the aorta, and was suspended in 4.5 ml of Krebs-Henseleit (K-H) solution (120 mM NaCl, 4.7 mM KCl, […], 1.2 mM KH2PO4, 2.5 mM CaCl2, 25 mM NaHCO3, and 10 mM glucose) in a Magnus vessel. The K-H solution in the Magnus vessel was maintained at 37° C., and a mixture gas of 95% O2 and 5% CO2 was continuously bubbled through the solution. First, 1 g of initial tension was applied to the sample, which was then left to stand rest for about 30 minutes, and 45 μl of 4M KCl solution was added to the solution to induce contraction. After contraction had stabilized, a washing operation was performed to replace the K-H solution. Then, after the sample was left to stand for 30 minutes, 45 μl of solvent DMSO was added to incubate the sample for 15 minutes, and 45 μl of angiotensin II solution (3×10^−8M) was added to induce contraction. This operation was repeated three times and 100% contraction was used as the average. Subsequently, the sample was stabilized by washing. Then, a 45 μl sample of each test compound prepared for each concentration (3×10^−5M to 10^−7M) using DMSO as a solvent was used to observe the inhibition effect of angiotensin II on vascular contraction by performing the same operation as described above. The contraction reaction was recorded on a recorder (RTA-1100, Japan Photoelectronics) via an equi-scale pressure transducer (TB-651T, Japan Photoelectronics). The angiotensin II inhibition effects of the test compounds were evaluated using the IC50 value.

[1] = system: hypertension caused by angiotensin II; experiment: Inhibition effect in the hypertension caused by angiotensin II using rats; assay type: in vivo, rat; conditions: Rattus norvegicus, iv, i. v., male SD rats, angiotensin II 100 ng/kg
Experimental: Male SD rats (age; 11 weeks; 310 to 330 g) Were used, and indwelling cannula were placed in the femoral aorta and the vena cava, under anesthesia with inactin. The arterial cannula was connected to a pressure transducer to record the blood pressure via a carrier amplifier (AP-601G Japan Photoelectronics) using a polygraph system (RM-6000 Japan Photoelectronics). Prior to tests using the test compounds, 100 ng/kg-equivalent angiotensin II (50 μl of serum solution from the rat) was administered using a regular-pulse cannula to check the hypertensive action. Then, 30 minutes later, a 1 mg/kg-equivalent test compound (50 μl of serum solution from the rat) was administered using the regular-pulse cannula, and similar administration of angiotensin II was performed 5 and 60 minutes later to check the corresponding hypertensive action. The hypertensive effect resulting from the administration of only angiotensin II was taken as a reference value of 100% to determine the antihypertensive rates of the test compounds.

male ICR mice = experiment: Acute toxicity tests using male ICR mice; assay type: in vivo; conditions: 250, 500 and 1,000 mg/kg orally, dissected after 21 days
Experimental: Acute toxicity tests of the compounds 1d and 2d described in table 1 were carried out. […] As a result, in each administration group, no mouse died whichever compound had been administered.

[2] = 5 min, 5 minutes after administration, read-out: Inhibition effect in the hypertension by angiotensin II, 5 minutes after administration
[3] = 1 h, 60 minutes after administration, read-out: Inhibition effect in the hypertension by angiotensin II, 60 minutes after administration

| SMILES | Angiotensin II receptor antagonism (in words) (angiotensin II receptor) | IC50 (angiotensin II receptor) | IC50 (aortae of guinea pigs) | inhibition in vivo at 1 mg/kg [1, 2] | inhibition in vivo at 1 mg/kg [1, 3] | Findings on dissection at the end of the observation period (male ICR mice) | melting point |
| --- | --- | --- | --- | --- | --- | --- | --- |
| CCCCc1nc(CCCC)n(Cc2ccc(-c3ccccc3/C=C3\OC(=O)C=C3O)cc2)n1 [Compound 2d] | distinct angiotensin II receptor antagonism | 46 nM | 4.5 µM | 30 to 70% | 10 to 30% | no abnormality |  |
| CCCCc1nc(CCCC)n(Cc2ccc(-c3ccccc3/C=C3\NC(=O)CC3=O)cc2)n1 [Compound 1d, 3,5-Dibutyl-1-[2′-[(2,4-dioxopyrrolidine-5(Z)-ylidene)methyl]biphenyl-4-yl]methyl-1H-1,2,4-triazole] | distinct angiotensin II receptor antagonism | 130 nM | 1.4 µM | ≥ 70% | 30 to 70% | no abnormality |  |
| CCCCc1nc(CCc2ccccc2)nn1Cc1ccc(-c2ccccc2/C=C2\OC(=O)C=C2O)cc1 [Compound 2f, 5-Butyl-3-(2-phenylethyl)-1-[2′-[(4-hydroxy-2(5H)-furanone-5(Z)-ylidene)methyl]biphenyl-4-yl]methyl-1H-1,2,4-triazole] |  | 11 nM | > 300 µM | 30 to 70% | < 10% |  | 184 to 185 °C |
| CCCc1nc(CCC)n(Cc2ccc(-c3ccccc3/C=C3\NC(=O)CC3=O)cc2)n1 [Compound 1a, 3,5-Dipropyl-1-[2′-[(2,4-dioxopyrrolidine-5(Z)-ylidene)methyl]biphenyl-4-yl]methyl-1H-1,2,4-triazole] |  | 220 nM | > 300 µM | 30 to 70% | < 10% |  | 179 to 180 °C |
| CCCCc1nc(-c2ccccc2)nn1Cc1ccc(-c2ccccc2/C=C2\OC(=O)C=C2O)cc1 [Compound 2e, 5-Butyl-3-phenyl-1-[2′-[(4-hydroxy-2(5H)-furanone-5(Z)-ylidene)methyl]biphenyl-4-yl]methyl-1H-1,2,4-triazole] |  | 180 nM | 154 µM | 30 to 70% | 30 to 70% |  | 188 to 189 °C |
| CCCCc1nc(CCc2ccccc2)nn1Cc1ccc(-c2ccccc2/C=C2\NC(=O)CC2=O)cc1 [Compound 1f, 5-Butyl-3-(2-phenylethyl)-1-[2′-[(2,4-dioxopyrrolidine-5(Z)-ylidene)methyl]biphenyl-4-yl]methyl-1H-1,2,4-triazole] |  | 150 nM | 87.9 µM | 30 to 70% | 30 to 70% |  | 188 to 189 °C |
| CCCc1nc(CCC)n(Cc2ccc(-c3ccccc3/C=C3\OC(=O)C=C3O)cc2)n1 [Compound 2a, 3,5-Dipropyl-1-[2′-[(4-hydroxy-2(5H)-furanone-5(Z)-ylidene)methyl]biphenyl-4-yl]methyl-1H-1,2,4-triazole] |  | 110 nM | 16.9 µM | 30 to 70% | < 10% |  | 160 to 161 °C |
